Where two headings read alike, the source gives them in different places. Ends that are not written are not given here.
What was measured:
[1] = system: adhesion of B16-BL6 melanoma cells to fibronectin; experiment: Inhibition of B16-BL6 cell adhesion to fibronectin-coated substrate by peptides present during culture; assay type: cell-based, mouse; conditions: for Adhesiveness adhered cell No./substrate (SD) / Percentage in parentheses (inhibition of adhesion to fibronectin): fibronectin coating
Experimental: First, microculture wells were preliminarily coated with 20 μg/ml of the polypeptide to be examined or 5 μg/ml of mouse fibronectin (obtained from Seikagaku Kogyo, Japan) which was used as a positive control. Next 0.05 ml/well of B16-BL6 melamona cells (2×10^4) labeled with a radioactive iodide [^125 I]IUdR was added thereto and the cells were cultured at 37° C. for 20 minutes. The number of cells thus adsorbed by the culture wells was determined by measuring the radioactivity. 1% bovine serum albumin (BSA) was employed as a negative control. The B16-BL6 melanoma cells were labeled by culturing the cells to be labeled at the logarithmic growth phase for 24 hours in an MEM medium containing 5% of FBS and 0.3 μCi/ml of [^125 I]IUdR (200 mCi/mmol; obtained from New England Nuclear, Boston, Mass., USA).
The labeled cells were washed with physiological saline solution twice and suspended in 0.02% EDTA for 1 minute. Subsequently the cells were collected and suspended in a serum-free MEM medium. The cell suspension thus obtained was used in the above examination. The unadsorbed cells in the well were washed away with PBS 4 times. Then the cells adsorbed by the well were dissolved in 0.1 ml of 0.1N NaOH. The number of adsorbed cells was determined by measuring the radioactivity of the dissolved cells.

[2] = system: B16-BL6 melanoma cells; experiment: Experimental metastasis to lung induced by intravenously injecting B16-BL6 melanoma cells; assay type: in vivo, C57BL/6 mice; conditions: for Antimetastatic effect on metastasis to lungs (in words): 500 μg mixed with cells, i.v.; for Antimetastatic effect compared with the control group (in words): 1,000 μg mixed with cells; for No. of instances of metastasis to lung mean ± SD: B16-BL6
[3] = system: adhesion of B16-BL6 melanoma cells to fibronectin; experiment: Inhibition of B16-BL6 cell adhesion to fibronectin-coated substrate by peptides present during culture; assay type: cell-based, mouse
[4] = system: B16-BL6 melanoma cells; conditions: for Metastasis of the cancer to the lungs (in words): 100 μg on 1st or 7th day single dose or 50 μg on 7th, 10th, 13th, 16th days, random polypeptide 100 μg on 7th day
Text: Furthermore, the antimetastatic effect of the compound of the present invention on a spontaneous metastasis model was examined. Namely, B16-BL6 cells were transplanted into the foot pads of C57BL/mice (each group having five animals). […] The transplanted cancer was removed on the 21st day and the mouse was anatomized 2 weeks later to examine the metastasis of the cancer into the lungs.

[5] = system: platelet aggregation induced by B16-BL6 melanoma cells; conditions: 100 μg/ml added to heparinized PRP 7 minutes before the cells; FIGS. 2 and 3
Experimental: The blood of a C57BL/6 mouse was centrifuged at 160×g for 15 minutes to give platelet rich plasma (PRP). As a control, platelet poor plasma (PPP) obtained by centrifuging the blood at 1,000×g for 10 minutes was employed. […] After preincubation for 5 to 7 minutes, the mixture was added to a suspension of B16-BL6 cells in physiological saline (approximately 10^6 /ml) and stirred at 37° C. at 1,000 rpm. During this period, the aggregation of the platelets was monitored with a dual aggregometer (Model 440; Chrono-Log, USA). […] FIGS. 1 to 3 together show the results.

[6] = system: mouse B16-BL6 melanoma cells; experiment: Adhesion of B16-BL6 melanoma cells to substrate coated with polypeptide or fibronectin; assay type: cell-based; conditions: 37° C., 20 minutes; for Adhesiveness adhered cell No./substrate (SD): wells coated with 20 μg/ml polypeptide, 5 μg/ml fibronectin or 1% BSA, 2×10^4 cells
Text: The adhesiveness to target cells of the compound of the present invention was examined in accordance with a method reported by Saiki et al. […] Namely, a polypeptide of the present invention having a structure of ([…] and a molecular weight of approximately 5,000 prepared in the following Synthetic Example 1 and a comparative polypeptide, ([…], carrying a random sequence of the corresponding amino acids Arg, Gly and Asp and having a molecular weight of approximately 5,000 prepared in the following Synthetic Example 3 were employed. The adhesiveness of each compound was examined by using mouse B16-Bl6 melanoma cells as the target. First, microculture wells were preliminarily coated with 20 μg/ml of the polypeptide to be examined or 5 μg/ml of mouse fibronectin (obtained from Seikagaku Kogyo, Japan) which was used as a positive control. Next 0.05 ml/well of B16-BL6 melamona cells (2×10^4) labeled with a radioactive iodide [^125 I]IUdR was added thereto and the cells were cultured at 37° C. for 20 minutes. […] Subsequently the cells were collected and suspended in a serum-free MEM medium. The cell suspension thus obtained was used in the above examination. The unadsorbed cells in the well were washed away with PBS 4 times. Then the cells adsorbed by the well were dissolved in 0.1 ml of 0.1N NaOH. The number of adsorbed cells was determined by measuring the radioactivity of the dissolved cells.

[7] = system: B16-BL6 melanoma cells; experiment: Distribution and retention of [125I]IUdR-labeled B16-BL6 melanoma cells in organs
Experimental: B16-BL6 cells at the logarithmic growth phase were labeled with [^125 I]IUdR. […] The liver, kidneys, spleen and lungs of each animal were removed 30 minutes or 24 hours after the administration and the radioactivity in these organs was determined. Mice which received PBS were used as control animals.

[8] = system: Lewis lung cancer cells (3 LL); experiment: Experimental metastasis to lung induced by injecting Lewis lung cancer cells (3LL); assay type: in vivo, C57BL/6 mice; conditions: for No. of instances of metastasis to lung mean ± SD: 3LL
Experimental: Namely, portions of 2, 20 and 100 μg of the above compound were each mixed with 3×10^4 Lewis lung cancer cells (3 LL) and administered to a group of C57BL/6 mice in the same manner as the one described in the above (b). Thus the antimetastatic effect of this compound was examined.

[9] = system: erythrocytes, spleen and thymus cells
[10] = incubated with 100 μg/ml peptide
[11] = incubated with 500 μg/ml peptide
[12] = Test 1, simultaneous (mixed with 5×10^4 cells, i.v.), 500 μg, colonies counted after 14 days
[13] = 100 μg/animal, administration date 7
[14] = 100 μg/animal, administration date 14
[15] = 100 μg/animal, administration date 20
[16] = 50 × 4 μg/animal, administration dates 7, 10, 13, 16
[17] = 500 μg/mouse with labeled cells i.v.

## Cl.N=C(N)NCCC[C@H](N)C(=O)NCC(=O)N[C@@H](CC(=O)O)C(=O)O [Arg-Gly-Asp, L-arginylglycylaspartate hydrochloride, reference compound]
[1]; 100 or 500 μg/ml peptide (His-Gly-Gly 500 μg/ml), hydrochloride
  Inhibition of adhesion of fibronectin to cells (in words): dose-dependently inhibited
[1]; [10]
  Adhesiveness adhered cell No./substrate (SD): 5320 ± 52 adhered cell No./substrate
[1]; [11]
  Adhesiveness adhered cell No./substrate (SD): 3708 ± 265 adhered cell No./substrate
  Percentage in parentheses (inhibition of adhesion to fibronectin): 37%
[2]; Test 1
  Amount needed relative to that of the polypeptide compound of the invention: approximately 6 times
  Antimetastatic effect on metastasis to lungs (in words): no such antimetastatic effect
[2]; [12]
  Metastasis to lung mean ± SD: 46 ± 14
[2]; Test 1, simultaneous, 3000 μg, 14 days
  Metastasis to lung mean ± SD: 18 ± 24
[2]; Test 1, versus 500 μg Poly(Arg-Gly-Asp)
  Amount needed to achieve an antimetastatic effect comparable to that of Poly(Arg-Gly-Asp): 3,000 μg

## O=C(O)CN(CCN(CC(=O)O)CC(=O)O)CC(=O)O [EDTA, reference compound]
[3]; 5 mM
  Inhibition of cell-adhesiveness of fibronectin (in words): inhibited

## Copoly(L-arginine hydrochloride, glycine, L-aspartic acid) [Poly(Arg, Gly, Asp), reference compound]
[4]
  Metastasis of the cancer to the lungs (in words): did not suppress
[4]; [13]
  Number of metastatic cancer to lung (mm ± SD): 158 ± 62 mm
  Size of transplanted cancer (mm ± SD), observation on 21st day: 11 ± 3 mm
[2]; Test 1
  Antimetastatic effect on metastasis to lungs (in words): no such antimetastatic effect
[2]; [12]
  Metastasis to lung mean ± SD: 65 ± 4
[5]
  Suppression of platelet aggregation induced by B16-BL6 cells (in words): scarcely any suppression capability
[6]
  Adsorption of B16-BL6 melanoma cells to coated wells (in words): scarcely any adsorption
  Adhesiveness adhered cell No./substrate (SD): 1750 ± 395 adhered cell No./substrate

## Fibronectin: mouse fibronectin (obtained from Seikagaku Kogyo, Japan) used as a positive control
[6]
  Adsorption of B16-BL6 melanoma cells to coated wells (in words): accelerated the adsorption
  Adhesiveness adhered cell No./substrate (SD): 5849 ± 513 adhered cell No./substrate

## Poly(L-arginyl-glycyl-L-aspartic acid)hydrochloride [Poly(Arg-Gly-Asp)-1500]
[2]; Test 2
  Antimetastatic effect compared with the control group (in words): remarkable antimetastatic effect
[2]; Test 2, simultaneous, 1000 μg
  Metastasis to lung mean ± SD: 14 ± 4

## Poly(L-arginylglycyl-L-aspartate hydrochloride) [Poly(Arg-Gly-Asp)]
[1]; [10]
  Adhesiveness adhered cell No./substrate (SD): 3687 ± 229 adhered cell No./substrate
[1]; [11]
  Adhesiveness adhered cell No./substrate (SD): 3715 ± 231 adhered cell No./substrate
  Percentage in parentheses (inhibition of adhesion to fibronectin): 36%
[3]; 100 or 500 μg/ml peptide (His-Gly-Gly 500 μg/ml)
  Inhibition of adhesion of fibronectin to cells (in words): inhibited
[3]; fibronectin coating, incubated with 100 μg/ml peptide
  Percentage in parentheses (inhibition of adhesion to fibronectin): 37%
[4]
  Metastasis of the cancer to the lungs (in words): remarkably reduced
[4]; 100 μg/animal, administration date 1
  Number of metastatic cancer to lung (mm ± SD): 24 ± 17 mm
[4]; 100 μg/animal, administration date 1, topical
  Size of transplanted cancer (mm ± SD), observation on 21st day: 8 ± 4 mm
[4]; [13]
  Number of metastatic cancer to lung (mm ± SD): 29 ± 22 mm
  Size of transplanted cancer (mm ± SD), observation on 21st day: 9 ± 3 mm
[4]; [14]
  Number of metastatic cancer to lung (mm ± SD): 120 ± 29 mm
  Size of transplanted cancer (mm ± SD), observation on 21st day: 10 ± 4 mm
[4]; [15]
  Number of metastatic cancer to lung (mm ± SD): 131 ± 79 mm
  Size of transplanted cancer (mm ± SD), observation on 21st day: 8 ± 3 mm
[4]; [16]
  Number of metastatic cancer to lung (mm ± SD): 26 ± 29 mm
  Size of transplanted cancer (mm ± SD), observation on 21st day: 8 ± 3 mm
[4]; same regimens
  Growth of the transplanted cancer per se (in words): could not be suppressed
[7]; 500 μg/mouse
  Radioactivity in other organs including blood versus control (in words): no significant difference
  Radioactivity of the lungs versus control group (in words): markedly lower
[7]; 500 μg/mouse with 2×10^4 labeled cells i.v., average of 3 animals
  Radioactivity (cpm ± SD), Lung: 1121 ± 281 cpm
[7]; [17]
  Radioactivity (cpm ± SD), Blood (1 ml): 304 ± 94 cpm
  Radioactivity (cpm ± SD), Kidney: 73 ± 19 cpm
  Radioactivity (cpm ± SD), Liver: 195 ± 42 cpm
  Radioactivity (cpm ± SD), Spleen: 59 ± 7 cpm
[7]; administered 15308 ± 1605 cpm/2 × 10^4 cells
  Percentage relative to the administered radioactivity, Lung: 7.3%
[7]; mouse, in vivo
  Percentage relative to the administered radioactivity, Blood (1 ml): 2.0%
  Percentage relative to the administered radioactivity, Kidney: 0.5%
  Percentage relative to the administered radioactivity, Liver: 1.3%
  Percentage relative to the administered radioactivity, Spleen: 0.4%
[2]; Test 1
  Antimetastatic effect on metastasis to lungs (in words): remarkably inhibited
[2]; [12]
  Metastasis to lung mean ± SD: 23 ± 3
[2]; Test 2
  Antimetastatic effect compared with the control group (in words): remarkable antimetastatic effect
[2]; Test 2, separate (i.v. 5 minutes after the cells), 1000 μg
  Metastasis to lung mean ± SD: 16 ± 4
[2]; Test 2, simultaneous, 1000 μg
  Metastasis to lung mean ± SD: 6 ± 4
[2]; not mixed, i.v. to mice given B16-BL6 cells 5 minutes before
  Antimetastatic effect (in words): high antimetastatic effect
[5]
  Suppression of platelet aggregation induced by B16-BL6 cells (in words): completely suppressed
[8]; 500 μg/animal
  No. of instances of metastasis to lung mean ± SD: 34 ± 7
[6]
  Adsorption of B16-BL6 melanoma cells to coated wells (in words): accelerated the adsorption
  Adhesiveness adhered cell No./substrate (SD): 7967 ± 910 adhered cell No./substrate

## Poly(Tyr-Ile-Gly-Ser-Arg)HCl (YIGSR; not fully specified; printed as Poly(Tyr-Ile-Gly-Ser-Arg)HCl; also: HCl salt)
[2]; 5 μg/animal
  No. of instances of metastasis to lung mean ± SD: 81 ± 9
[2]; 20 μg/animal
  No. of instances of metastasis to lung mean ± SD: 43 ± 13
[2]; 100 μg/animal
  No. of instances of metastasis to lung mean ± SD: 19 ± 9
[8]; 100 μg/animal
  No. of instances of metastasis to lung mean ± SD: 14 ± 11
[8]; mouse, in vivo
  Antimetastatic activity relative to the original pentapeptide: ~10 times
[8]; polypeptide 2, 20 and 100 μg, pentapeptide 100 μg, mixed with cancer cells
  Antimetastatic effect on metastasis to the lungs (in words): remarkably inhibited
[9]
  Cytotoxicity on erythrocytes, spleen and thymus cells: neither any cytotoxicity

From patent US5236903A, “Polypeptide comprising repeated cell-adhesive core sequences” (Azuma; Ichiro, priority 1988, dated 1993)
